Results as given in ChEMBL document CHEMBL4354794, “Potential Anticancer Agents Characterized from Selected Tropical Plants” (J Nat Prod, 2019).

Key:
HT-29 [1] = assay: Antiproliferative activity against human HT-29 cells assessed as reduction in cell viability; assay type: functional, cell-based
HepG2 = assay: Antiproliferative activity against human HepG2 assessed as reduction in cell viability incubated for 48 hrs by AlamarBlue assay; assay type: functional, cell-based; details: HepG2, 48 h
HT-29 [2] = assay: Antiproliferative activity against human HT-29 cells assessed as reduction in cell viability after 3 days by SRB assay; assay type: functional, cell-based; details: HT-29, 72 h
A549 = assay: Antiproliferative activity against human A549 cells assessed as reduction in cell viability after 48 hrs by MTT assay; assay type: functional, cell-based; details: A549, 48 h
BGC-823 = assay: Antiproliferative activity against human BGC823 cells assessed as reduction in cell viability after 48 hrs by MTT assay; assay type: functional, cell-based; details: BGC-823, 48 h
[3] = Antiproliferative activity against human KKU100 cells assessed as reduction in cell viability after 72 hrs by SRB assay; assay type: functional, cell-based; details: KKU100, 72 h
HL-60 = assay: Antiproliferative activity against human HL60 cells assessed as reduction in cell viability after 3 days by trypan blue dye based hemocytometer counting method; assay type: functional; details: HL-60, 72 h
NCI-H1650 = assay: Antiproliferative activity against human NCI-H1650 cells assessed as reduction in cell viability after 72 hrs by CellTiter-Glo assay; assay type: functional, cell-based; details: NCI-H1650, 72 h
SNB-19 = assay: Antiproliferative activity against human SNB19 cells; assay type: functional, cell-based
MCF7 = assay: Antiproliferative activity against human MCF7 assessed as reduction in cell viability incubated for 48 hrs by AlamarBlue assay; assay type: functional, cell-based; details: MCF7, 48 h
Trypsin = Trypsin (Homo sapiens, UniProt P07477+P07478+P35030); assay: Inhibition of trypsin (unknown origin) using Z-FR-MCA as substrate by spectrofluorimetric method; assay type: protein assay
Cruzipain = Cruzipain (Trypanosoma cruzi, UniProt P25779); assay: Inhibition of Trypanosoma cruzi cruzain (unknown origin) using Z-FR-MCA as substrate by spectrofluorimetric method
Sequence of Cruzipain (P25779 whole entry): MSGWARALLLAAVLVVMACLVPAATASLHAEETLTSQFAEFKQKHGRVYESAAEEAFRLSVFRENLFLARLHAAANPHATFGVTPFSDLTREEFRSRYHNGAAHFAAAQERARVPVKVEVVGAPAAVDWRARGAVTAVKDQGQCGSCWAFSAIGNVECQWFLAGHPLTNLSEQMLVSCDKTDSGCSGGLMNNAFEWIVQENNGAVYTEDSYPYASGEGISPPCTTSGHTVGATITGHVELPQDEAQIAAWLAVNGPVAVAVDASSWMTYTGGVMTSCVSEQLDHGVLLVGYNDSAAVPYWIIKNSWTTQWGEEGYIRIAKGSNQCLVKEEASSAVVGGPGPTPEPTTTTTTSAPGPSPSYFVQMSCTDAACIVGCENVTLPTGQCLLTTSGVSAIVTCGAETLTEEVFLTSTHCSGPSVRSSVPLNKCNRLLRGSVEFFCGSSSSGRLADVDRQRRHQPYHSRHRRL

Papain = target: T1, Papain (Carica papaya, UniProt P00784); assay: Inhibition of Papaya papain using Z-FR-MCA as substrate by spectrofluorimetric method
T1 sequence (P00784 whole entry): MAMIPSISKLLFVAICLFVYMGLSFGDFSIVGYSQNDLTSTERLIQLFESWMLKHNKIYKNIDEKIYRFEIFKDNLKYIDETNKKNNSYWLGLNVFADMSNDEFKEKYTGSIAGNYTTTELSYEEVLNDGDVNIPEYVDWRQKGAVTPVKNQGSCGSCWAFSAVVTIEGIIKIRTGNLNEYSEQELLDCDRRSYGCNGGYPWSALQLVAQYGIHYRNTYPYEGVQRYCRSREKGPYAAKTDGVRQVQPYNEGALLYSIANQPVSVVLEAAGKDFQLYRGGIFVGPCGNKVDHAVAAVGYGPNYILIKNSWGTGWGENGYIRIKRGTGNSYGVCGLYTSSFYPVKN

P388 = assay: Antiproliferative activity against mouse P388 cells assessed as reduction in cell viability; assay type: functional, cell-based

Compound: C=C(C)C(=O)O[C@H]1C[C@@]2(C)OC(=CC2=O)C(=C)[C@H](O)[C@H]2OC(=O)C(=C)[C@@H]21
- IC50 (HT-29 [1]): 280 nM

Compound: C=C1C(=O)O[C@@H]2C3O[C@]3(C)CC/C=C(\C)CC[C@@H]12 (some centres not stated)
- IC50 (HepG2): > 10000 nM

Compound: C=C1C(=O)O[C@@H]2/C=C(/C)C3=CC(=O)[C@@](C)(C[C@H](OC(=O)C(C)C)[C@@H]12)O3
- IC50 (HT-29 [1]): 580 nM

Compound: CC(C)=CCc1c2c(c(O)c3c1O[C@]14C(=C[C@H]5C[C@@H]1C(C)(C)O[C@@]4(C/C=C(/C)C(=O)O)C5=O)C3=O)C=CC(C)(C)O2
- IC50 (HT-29 [2]): 360 nM

Compound: COCOc1cc(O)c2c(c1)OC13C(=CC4CC1C(C)(C)OC3(CC=C(C)C)C4=O)C2=O (configuration not stated)
- IC50 (A549): 3300 nM
- IC50 (BGC-823): 3200 nM

Compound: C=C(C)C(=O)O[C@H]1C[C@@]2(C)OC(=CC2=O)[C@H](C)C(CC(=C)C(=O)O[C@H]2C[C@@]3(C)OC(=CC3=O)/C(C)=C\[C@H]3OC(=O)C(=C)[C@H]23)[C@H]2OC(=O)C(=C)[C@H]12 (some centres not stated)
- IC50 (HT-29 [1]): 150 nM

Compound: CCCCCCCCCCCCCCCC(=O)OC[C@H]1O[C@@H](O[C@H]2CC[C@@]3(C)C(=CC[C@H]4[C@@H]5CC[C@H]([C@H](C)CC[C@@H](CC)C(C)C)[C@@]5(C)CC[C@@H]43)C2)[C@H](O)[C@@H](O)[C@@H]1O
- IC50 (HT-29 [2]): > 10000 nM

Compound: CC(C)=CCC12OC(C)(C)C3CC(C=C4C(=O)c5c(O)cc(O)cc5OC431)C2=O (configuration not stated)
- IC50 (A549): 4100 nM
- IC50 (BGC-823): 5900 nM

Compound: COCOc1cc(O)c2c(c1)OC13C(=CC4CC1C(C)(C)OC3(C/C=C(\C)CO)C4=O)C2=O (configuration not stated)
- IC50 (A549): 2500 nM
- IC50 (BGC-823): 3800 nM

Compound: CC(C)=CCc1c(O)cc(O)c2c1O[C@]13C(=C[C@H]4C[C@@H]1C(C)(C)O[C@@]3(CC=C(C)C)C4=O)C2=O
- IC50 [3]: 3500 nM

Compound: C=C(C)C(O)Cc1c2c(c(O)c3c1O[C@]14C(=C[C@H]5C[C@@H]1C(C)(C)O[C@@]4(C/C=C(\C)C(=O)O)C5=O)C3=O)C=CC(C)(C)O2 (some centres not stated)
- IC50 (HT-29 [2]): 2600 nM

Compound: CO[C@@H]1[C@@H]2C[C@H]3C(C)(C)O[C@@](C/C=C(/C)C(=O)O)(C2=O)[C@]32Oc3c(CC=C(C)C)c4c(c(O)c3C(=O)[C@H]12)C=C[C@@](C)(CCC=C(C)C)O4
- IC50 (HL-60): 830 nM

Compound: CC(C)=CCC[C@@]1(C)C=Cc2c(O)c3c(c(CCC(C)(C)O)c2O1)O[C@]12C(=C[C@H]4C[C@@H]1C(C)(C)O[C@@]2(C/C=C(/C)C(=O)O)C4=O)C3=O
- IC50 (NCI-H1650): 950 nM

Compound: C=C1C(=O)O[C@@H]2C/C(C)=C\CC(=O)[C@](C)(OC(C)=O)C[C@H](OC(=O)/C(C)=C\C)[C@@H]12
- IC50 (HT-29 [1]): 4000 nM

Compound: COCOc1cc(O)c2c(c1)OC13C(=CC4CC1C(C)(C)OC3(CC1OC1(C)C)C4=O)C2=O (configuration not stated)
- IC50 (A549): 2700 nM
- IC50 (BGC-823): 310 nM

Compound: CC(C)=CCC[C@@]1(C)C=Cc2c(O)c3c(c(C/C=C(\C)CO)c2O1)O[C@]12C(=C[C@H]4C[C@@H]1C(C)(C)O[C@@]2(C/C=C(/C)C(=O)O)C4=O)C3=O
- IC50 (NCI-H1650): 620 nM

Compound: CC(C)=CCC/C(C)=C/Cc1c(O)c(CC=C(C)C)c2c(c1O)C(=O)C1=C[C@@H]3C[C@H]4C(C)(C)O[C@@](C/C=C(\C)C=O)(C3=O)[C@@]14O2
- IC50 (NCI-H1650): 970 nM

Compound: C=C(C)[C@@]1(O)O[C@H]2C[C@@]3(C)OC(=CC3=O)/C(C)=C\[C@H]3OC(=O)[C@@]1(C)[C@@H]23
- IC50 (HT-29 [1]): > 10000 nM
- IC50 (SNB-19): 100000 nM

Compound: C=C1C(=O)O[C@@H]2/C=C(/C)C3=CC(=O)[C@@](C)(C[C@H](OC(=O)/C(C)=C\C)[C@@H]12)O3
- IC50 (HT-29 [1]): 1400 nM
- IC50 (SNB-19): 13800 nM

Compound: COCOc1cc(O)c2c(c1)OC13C(=CC4CC1C(C)(C)OC3(C/C=C(\C)CBr)C4=O)C2=O (configuration not stated)
- IC50 (A549): 960 nM
- IC50 (BGC-823): 1600 nM

Compound: COCOc1cc(O)c2c(c1)OC13C(=CC4CC1C(C)(C)OC3(C/C=C(\C)C=O)C4=O)C2=O (configuration not stated)
- IC50 (A549): 1000 nM
- IC50 (BGC-823): 5000 nM

Compound: CC(C)=CCC/C(C)=C/Cc1c(O)c(CC=C(C)C)c2c(c1O)C(=O)C1=C[C@@H]3C[C@H]4C(C)(C)O[C@@](CC=C(C)C)(C3=O)[C@@]14O2
- IC50 (NCI-H1650): 1100 nM

Compound: CC(C)=CCc1c(O)c(CC=C(C)C)c2c(c1O)C(=O)C1=C[C@H]3C[C@@H]4C(C)(C)O[C@@](C/C=C(/C)C(=O)O)(C3=O)[C@@]14O2
- IC50 (HT-29 [2]): 3200 nM

Compound: C=C1C(=O)O[C@@H]2C[C@@H](C)[C@H](OC)CC(=O)[C@](C)(OC(C)=O)C[C@H](OC(=O)/C(C)=C\C)[C@@H]12
- IC50 (HT-29 [1]): 1400 nM

Compound: C/C1=C\CC[C@@]2(C)O[C@H]2[C@H]2OC(=O)[C@@H](CNc3ccn(C4OC(CO)[C@H](O)[C@@H]4O)c(=O)n3)[C@@H]2CC1 (some centres not stated)
- IC50 (HepG2): 240 nM
- IC50 (MCF7): 5200 nM

Compound: COCOc1cc2c(c(O)c1Br)C(=O)C1=CC3CC4C(C)(C)OC(C/C=C(\C)CO)(C3=O)C14O2 (configuration not stated)
- IC50 (A549): 560 nM
- IC50 (BGC-823): 2200 nM

Compound: C/C1=C\CC[C@@]2(C)O[C@H]2[C@H]2OC(=O)[C@@H](CNC(Cc3ccc(N(CCCl)CCCl)cc3)C(=O)O)[C@@H]2CC1 (some centres not stated)
- IC50 (HepG2): 260 nM
- IC50 (MCF7): 1800 nM

Compound: CC(C)=CCc1c2c(c(O)c3c1O[C@]14C(=C[C@H]5C[C@@H]1C(C)(C)O[C@@]4(C/C=C(\C)C=O)C5=O)C3=O)C=CC(C)(C)O2
- IC50 [3]: 3300 nM

Compound: CO[C@H]1[C@H]2C(=O)c3c(O)c4c(c(CC=C(C)C)c3O[C@@]23[C@@H]2C[C@H]1C(=O)[C@]3(C/C=C(/C)C(=O)O)OC2(C)C)OC(C)(C)C=C4
- IC50 (HT-29 [2]): 1900 nM

Compound: C=C1C(=O)O[C@@H]2C[C@@H](C)C3=CC(=O)[C@@](C)(C[C@H](OC(=O)/C(C)=C\C)[C@@H]12)O3
- IC50 (HT-29 [1]): 560 nM

Compound: C=C1C(=O)O[C@@H]2[C@@H](O)[C@@H](C)C3=CC(=O)[C@@](C)(C[C@H](OC(=O)/C(C)=C\C)[C@@H]12)O3
- IC50 (HT-29 [1]): 6600 nM

Compound: COCOc1cc(O)c2c(c1)OC13C(=CC4CC1C(C)(C)OC3(C[C@H](O)C(C)(C)O)C4=O)C2=O (some centres not stated)
- IC50 (A549): 1700 nM
- IC50 (BGC-823): 860 nM

Compound: C=C(C)C(=O)O[C@H]1C[C@@]2(C)OC(=CC2=O)[C@H](C)[C@H](O)[C@H]2OC(=O)C(=C)[C@@H]21
- IC50 (HT-29 [1]): 1900 nM

Compound: CC(C)=CCC/C(C)=C/Cc1c(O)c(CC=C(C)C)c2c(c1O)C(=O)C1=C[C@@H]3C[C@H]4C(C)(C)O[C@@](C/C=C(\C)C(=O)O)(C3=O)[C@@]14O2
- IC50 (NCI-H1650): 1400 nM

Compound: C=C1C(=O)O[C@@H]2C[C@@H](C)[C@H](OC)CC(=O)[C@](C)(O)C[C@H](OC(=O)/C(C)=C\C)[C@@H]12
- IC50 (HT-29 [1]): 1000 nM

Compound: COc1cc2c(O[C@@H]3OC[C@H](O)[C@H](O)[C@H]3OC)c3c(c(-c4ccc5c(c4)OCO5)c2cc1OC)C(=O)OC3
- IC50 (HT-29 [2]): 19 nM

Compound: COc1ccc(C2Oc3cc(OC)cc(O)c3C(=O)C2c2c(OC)cc(O)c3c(=O)cc(-c4ccc(OC)c(OC)c4)oc23)cc1 (racemic)
- IC50 (Trypsin): 1600 nM
- IC50 (Cruzipain): 235000 nM
- IC50 (Papain): 15400 nM

Compound: CCCC(=O)Oc1ccc(C2Oc3cc(OC(=O)CCC)cc(O)c3C(=O)C2c2c(OC(=O)CCC)cc(O)c3c(=O)cc(-c4ccc(OC(=O)CCC)c(OC(=O)CCC)c4)oc23)cc1 (racemic)
- IC50 (Trypsin): 19800 nM
- IC50 (Cruzipain): 8100 nM
- IC50 (Papain): 15700 nM

Compound: CC(=O)Oc1ccc(C2Oc3cc(OC(C)=O)cc(O)c3C(=O)C2c2c(OC(C)=O)cc(O)c3c(=O)cc(-c4ccc(OC(C)=O)c(OC(C)=O)c4)oc23)cc1 (racemic)
- IC50 (Trypsin): 21100 nM
- IC50 (Cruzipain): 537000 nM
- IC50 (Papain): 600 nM

Compound: O=C1c2c(O)cc(O)cc2OC(c2ccc(O)cc2)C1c1c(O)cc(O)c2c(=O)cc(-c3ccc(O)c(O)c3)oc12 (racemic)
- IC50 (Trypsin): 3800 nM
- IC50 (Cruzipain): 9600 nM
- IC50 (Papain): 10500 nM

Compound: CC(C)=CCc1c2c(c(O)c3c1O[C@]14C(=C[C@H]5C[C@@H]1C(C)(C)O[C@@]4(C/C=C(/C)C(=O)O)C5=O)C3=O)CC(O)C(C)(C)O2 (single isomer, unassigned; (-))
- IC50 (HT-29 [2]): 2900 nM

Compound: CC(C)=CCc1c(-c2cc(O)c(O)cc2O)oc2c3c(cc(O)c2c1=O)OC(C)(C)C=C3 [ARTONIN E]
- IC50 (P388): 140 nM
